Test results from ChEMBL document CHEMBL3988442, “University of Dundee, Small-Polar-MMV Screening Library” (2021).

Molecular target: Lysine--tRNA ligase (Plasmodium falciparum (isolate 3D7), UniProt Q8IDJ8)
Experiment: Pf-KRS-1 (Lysyl-RNA Synthetase-1, KRS-1, cytosolic KRS) from Plasmodium falciparum. Inhibitor assay, 384 well plate, luminescence read.
Type: functional

Lysine--tRNA ligase, sequence (Q8IDJ8 whole entry): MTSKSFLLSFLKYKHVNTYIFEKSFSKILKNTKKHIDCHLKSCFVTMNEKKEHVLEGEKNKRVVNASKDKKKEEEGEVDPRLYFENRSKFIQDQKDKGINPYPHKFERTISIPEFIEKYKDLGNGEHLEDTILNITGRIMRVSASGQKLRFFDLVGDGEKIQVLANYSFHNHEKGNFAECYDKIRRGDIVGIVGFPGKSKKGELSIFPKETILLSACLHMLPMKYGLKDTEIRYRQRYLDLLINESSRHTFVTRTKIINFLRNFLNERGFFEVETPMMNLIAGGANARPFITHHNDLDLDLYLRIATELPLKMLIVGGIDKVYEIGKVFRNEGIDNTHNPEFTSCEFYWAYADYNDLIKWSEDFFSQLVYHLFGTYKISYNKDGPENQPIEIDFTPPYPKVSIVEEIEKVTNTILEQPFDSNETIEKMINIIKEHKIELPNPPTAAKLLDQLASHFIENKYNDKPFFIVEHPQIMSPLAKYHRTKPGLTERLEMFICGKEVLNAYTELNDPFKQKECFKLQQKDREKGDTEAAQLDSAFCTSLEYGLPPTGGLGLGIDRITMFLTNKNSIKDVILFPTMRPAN

`O=C(NCC1CCC1)c1ccnc(-n2ccnc2)c1` and `c1cnc(N2CCCC(NCc3ccc(-n4ccnc4)cc3)C2)nc1` (stereo not given) cannot be ordered by IC50: greater than 50.1 µM for the first, greater than 50.1 µM for the second.

`CCCc1ccc(CN2CCN(C(=O)CC(C)C)[C@@H]3CS(=O)(=O)C[C@@H]32)o1` and `CCCc1ccc(CN2CCN(c3ncccn3)[C@@H]3CS(=O)(=O)C[C@@H]32)o1` cannot be ordered by IC50: greater than 50.1 µM for the first, greater than 50.1 µM for the second.

`O=c1c(CN2CCCCC2)coc2ccc(Cl)cc12` and `Cc1nc(CN2CCC3(CCCO3)CC2)c2ccccn12` cannot be ordered by IC50: greater than 50.1 µM for the first, greater than 50.1 µM for the second.

`COCCCN1CCCC12CCN(Cc1cccnc1OC)CC2` and `Cc1ccc(C2(O)CCN(Cc3nc(C)n4ccccc34)CC2)nc1` cannot be ordered by IC50: greater than 50.1 µM for the first, greater than 50.1 µM for the second.

`Cc1cccc2c1nc(CCO)n2-c1ccc(N)nc1` and `Cc1ccc(O)c(CNCC(C)c2nc3ccccc3o2)n1` (stereo not given) cannot be ordered by IC50: greater than 50.1 µM for the first, greater than 50.1 µM for the second.

`Cc1ccc(CN2C[C@@H]3CN(CC4CCOCC4)CCO[C@@H]3C2)s1` and `O=S(=O)(NC1CCC12CCN(CC1CCOCC1)CC2)c1ccccc1` (stereo not given) cannot be ordered by IC50: greater than 50.1 µM for the first, greater than 50.1 µM for the second.

`O=C(Nc1cccnc1)[C@H]1C[C@@H]2CCN(c3nncs3)C[C@H]2O1` and `c1cnnc(N2CCCC(NCc3ccncc3)C2)c1` (stereo not given) cannot be ordered by IC50: greater than 50.1 µM for the first, greater than 50.1 µM for the second.

`Cc1csc(CNC(=O)NCc2ccc3c(c2)OCCO3)n1` and `Cn1cnnc1C1CCCN(C(=O)c2ccc3c(c2)OCCO3)C1` (stereo not given) cannot be ordered by IC50: greater than 50.1 µM for the first, greater than 50.1 µM for the second.

`CCC1CCC(CNC(=O)c2c[nH]c(=O)c(Cl)c2)CC1` (stereo not given) and `CNS(=O)(=O)c1ccc(CNC(=O)NCC2CCC2)cc1` cannot be ordered by IC50: greater than 50.1 µM for the first, greater than 50.1 µM for the second.

`N#CCc1ccc(OCC(=O)N2CCCC(n3cccn3)C2)cc1` (stereo not given) and `O=C(COCCc1ccccc1)N1CCCC(n2cccn2)C1` (stereo not given) cannot be ordered by IC50: greater than 50.1 µM for the first, greater than 50.1 µM for the second.

Going from `CC1CCC(N2Cc3nc(N)ncc3C2=O)CC1` (stereo not given) to `CC(C)CN1Cc2nc(N)ncc2C1=O`, the IC50 falls from greater than 50.1 µM to 35.6 µM. The second is the more potent here.

`CN1C[C@@H]2CC[C@H](CC1=O)N2C(=O)c1ccc(-c2ccccc2)[nH]c1=O` and `O=c1[nH]c2c(c(=O)n1C1CCCCC1)CCC2Nc1ccccc1` (stereo not given) cannot be ordered by IC50: greater than 50.1 µM for the first, greater than 50.1 µM for the second.

`C/C=C(\C)CN1C[C@H](NC(=O)CCOC)[C@@H](c2ccc(C)o2)C1` and `COCCOc1ccc(NC(=O)N2CCCC2c2ccsc2)cn1` (stereo not given) cannot be ordered by IC50: greater than 50.1 µM for the first, greater than 50.1 µM for the second.

`CN(C)Cc1cnc2n1CCN(C(=O)Cc1ccc(F)cc1)CC2` and `CC(=O)c1cc(CC(=O)N2CCN(S(=O)(=O)c3ccccc3)CC2)cs1` cannot be ordered by IC50: greater than 50.1 µM for the first, greater than 50.1 µM for the second.

`Cc1nc[nH]c1CN1CCn2nc(CN3CC[C@H](F)C3)cc2C1` and `CCN1CCC(N2CCN(c3cc(-c4nc(C)no4)ccn3)CC2)CC1` cannot be ordered by IC50: greater than 50.1 µM for the first, greater than 50.1 µM for the second.

`Cc1nnc(CN2CCCC(CCc3ccccc3C(F)(F)F)C2)o1` (stereo not given) and `c1ccc(CCN2CCCC(Cn3ccnc3)C2)cc1` (stereo not given) cannot be ordered by IC50: greater than 50.1 µM for the first, greater than 50.1 µM for the second.

`CC(C)c1nccn1C1CCCN(C(=O)c2cccc3[nH]ncc23)C1` (stereo not given) and `O=C(c1cnccn1)N1C[C@@H](c2ccccc2)[C@@]2(CCNC2=O)C1` cannot be ordered by IC50: greater than 50.1 µM for the first, greater than 50.1 µM for the second.

First: O=C(c1c[nH]nn1)N1CCCC1C1CCCCC1 (stereo not given)
Second: CO[C@H]1CC[C@H]2[C@H]1OCCN2C(=O)CC1=CCCCC1
The IC50 of the first is lower: 42.3 µM for the first, greater than 50.1 µM for the second.

`O=C(NCCc1ccco1)Nc1cc(C(F)(F)F)c[nH]c1=O` and `Cn1cc(NC(=O)c2ccccn2)cc(Br)c1=O` cannot be ordered by IC50: greater than 50.1 µM for the first, greater than 50.1 µM for the second.

`Cc1nnc(NCCC(=O)NCc2ccccc2)c(C#N)c1C` and `Cc1nnc(NCCC(=O)N(C)Cc2ccccc2)c(C#N)c1C` cannot be ordered by IC50: greater than 50.1 µM for the first, greater than 50.1 µM for the second.

`Cc1cc(C)n(C2CN(c3ncnc4[nH]ccc34)C2)n1` and `Cc1cnc(N2CCN(C)c3ncccc3C2)nc1` cannot be ordered by IC50: greater than 50.1 µM for the first, greater than 50.1 µM for the second.

`O=c1[nH]c2c(c(=O)n1C1CCCCC1)CCC2NCCc1ccccc1` (stereo not given) and `Cc1cccc(NC2CCc3c2[nH]c(=O)n(C2CCCCC2)c3=O)c1C` (stereo not given) are within 1.5-fold of each other in IC50: 1.75 µM for the first, 2.45 µM for the second.

First: FC(F)(F)COCCN1CCc2cncnc2C1
Second: c1ncc2c(n1)CN(CC1CCCCO1)CC2 (stereo not given)
The IC50 of the first is higher: greater than 50.1 µM for the first, 32.7 µM for the second. The second is the more potent here.

`O=C(NCc1cccs1)NCC(O)(c1cccs1)C1CC1` (stereo not given) and `CCCOc1ccc(CNC(=O)N2CCC(C(N)=O)C2)cc1` (stereo not given) cannot be ordered by IC50: greater than 50.1 µM for the first, greater than 50.1 µM for the second.

`CCN(Cc1cccc(F)c1)c1ccc2nnnn2n1` and `O=C1CC(c2ccc(C(=O)O)cc2)c2ncn(-c3cccc(F)c3)c2N1` (stereo not given) cannot be ordered by IC50: greater than 50.1 µM for the first, greater than 50.1 µM for the second.

`O=C(O)c1c(-c2ccoc2)ncc2c1CCN(C1CCOC1)C2` (stereo not given) and `O=C([C@H]1CCCO1)N1CCc2ncnc(NC3CC3)c2CC1` cannot be ordered by IC50: greater than 50.1 µM for the first, greater than 50.1 µM for the second.

`CN(C)CCn1ccnc1C1CCN(c2cc(N)nc(N)n2)CC1` and `Cc1nnc(N2CCC(CCN(C)C)CC2)c(C#N)c1C` cannot be ordered by IC50: greater than 50.1 µM for the first, greater than 50.1 µM for the second.

`COc1c(F)ccc(C(=O)N2CC[C@H](CO)[C@@H](O)C2)c1F` and `CS(=O)(=O)c1ccc(CNC(=O)N2CCC(C(N)=O)C2)cc1` (stereo not given) cannot be ordered by IC50: greater than 50.1 µM for the first, greater than 50.1 µM for the second.

`CC(C)(C)c1cc(CN2CCOC(CCc3ccccc3)C2)n[nH]1` (stereo not given) and `CCc1nc(CN2CCOC(CN(CC)c3cccnn3)C2)cs1` (stereo not given) cannot be ordered by IC50: greater than 50.1 µM for the first, greater than 50.1 µM for the second.

`CC(C)CN1C(=O)C2(CCCC2)NC1c1cn(C)c(=O)n(C)c1=O` (stereo not given) and `CN1C(=O)CC2(CCN(S(=O)(=O)c3cccs3)CC2)c2ccccc21` cannot be ordered by IC50: greater than 50.1 µM for the first, greater than 50.1 µM for the second.

`COc1cc(CNC(C)Cn2ccnc2)cc2c1OCO2` (stereo not given) and `Cc1cccc(OCCCNC(=O)NC(C)c2nncn2C)c1` (stereo not given) cannot be ordered by IC50: greater than 50.1 µM for the first, greater than 50.1 µM for the second.

`Cc1nnc(NC(=O)CN2CCOC(Cn3cccn3)C2)s1` (stereo not given) and `Cc1nn(C)c(C)c1NC(=O)CN1CCOC(Cn2cccn2)C1` (stereo not given) cannot be ordered by IC50: greater than 50.1 µM for the first, greater than 50.1 µM for the second.

`CCc1c(C)[nH]c(C(C)(N)CC)nc1=O` (stereo not given) and `Cc1nnc(NCCn2nc(C)c(Cl)c2C)o1` cannot be ordered by IC50: greater than 50.1 µM for the first, greater than 50.1 µM for the second.

`COc1ccc(/C=C/CN2C[C@H]3CC[C@@H]2CN(S(=O)(=O)N(C)C)C3)cc1` and `COC(=O)c1ccc2ccn(CC3COCCO3)c(=O)c2c1` (stereo not given) cannot be ordered by IC50: greater than 50.1 µM for the first, greater than 50.1 µM for the second.

`O=C(NCc1csc(Br)c1)c1cnccn1` and `O=C(NCC1(O)CCCC1)c1ccc2nsnc2c1` cannot be ordered by IC50: greater than 50.1 µM for the first, greater than 50.1 µM for the second.

`Cc1ccc(C)c2c(O)cc(CN[C@H]3CCCCNC3=O)nc12` and `Cc1cc(C)c2nc(CNC3CCCNC3=O)cc(O)c2c1` (stereo not given) cannot be ordered by IC50: greater than 50.1 µM for the first, greater than 50.1 µM for the second.

`FC(F)(F)c1ccc(CN2CCN(Cc3cscn3)CC2)cc1` and `O=C(c1ccccn1)N1CCCN(Cc2nnc(C3CC3)o2)CC1` cannot be ordered by IC50: greater than 50.1 µM for the first, greater than 50.1 µM for the second.

`CN1[C@H](Cn2cncn2)C[C@@H]2CN(Cc3cccc(C#N)c3)CC[C@@H]21` and `Clc1snnc1CN1CCCCC1Cn1cncn1` (stereo not given) cannot be ordered by IC50: greater than 50.1 µM for the first, greater than 50.1 µM for the second.

`CSCCCN1CCCC(Cn2ccnc2)C1` (stereo not given) and `Cc1cc2ccccc2n1CCC(=O)N1CCC[C@H]1C(N)=O` cannot be ordered by IC50: greater than 50.1 µM for the first, greater than 50.1 µM for the second.

`Cn1cc(C(C)(O)CNc2ccc(Cl)c(C#N)n2)cn1` (stereo not given) and `Cc1ccc(N2CC[C@H](OCC3CC3)[C@@H]2Cc2cnn(C)c2)nn1` cannot be ordered by IC50: greater than 50.1 µM for the first, greater than 50.1 µM for the second.

`COCCCN1CC2(CCCCN2C(=O)C2CCCCC2)CC1=O` (stereo not given) and `COCc1cc(N(CC(F)F)C2CC2)n2ncnc2n1` cannot be ordered by IC50: greater than 50.1 µM for the first, greater than 50.1 µM for the second.

`Cc1nc(N(C)CCCc2nccn2C)c2nc(C)oc2n1` and `Cc1nc(CCC(=O)N2Cc3cnc(-c4ccccc4)nc3C2)n[nH]1` cannot be ordered by IC50: greater than 50.1 µM for the first, greater than 50.1 µM for the second.

`Cc1cc(C)c2nc(CN[C@H]3CCCNC3)cc(O)c2c1` and `CN(C)c1cc2c(nn1)CCN(C(=O)C1Cc3ccccc3S1)C2` (stereo not given) cannot be ordered by IC50: greater than 50.1 µM for the first, greater than 50.1 µM for the second.

`O=C(NCC1(O)CCSCC1)c1ccoc1` and `CC(NC(=O)NCCOc1ccc(Cl)cc1)c1nncn1C` (stereo not given) cannot be ordered by IC50: greater than 50.1 µM for the first, greater than 50.1 µM for the second.

`O=C(C[S+]([O-])Cc1c(Cl)cccc1Cl)N1CCc2sccc2C1` (stereo not given) and `Cc1noc(C)c1CN1CCOC2(CCCN(c3nncs3)C2)C1` (stereo not given) cannot be ordered by IC50: greater than 50.1 µM for the first, greater than 50.1 µM for the second.
